# In patent US9145391B2, “Bipyridylaminopyridines as Syk inhibitors” (Merck Sharp & Dohme Corp., priority 2011, dated 2015):
# Target: recombinant human GST-Syk (Homo sapiens (Human), UniProt P43405)
# Test: Homogeneous Time-Resolved Fluorescence (HTRF) assay for the recombinant human Syk enzyme
# Assay type: biochemical
# Conditions: recombinant human GST-Syk 5 pM, ATP 25 μM, read-out: rhSyk IC50
# Summary of the method: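 Recombinant GST-hSyk fusion protein kinase activity was read by HTRF. Reactions were started with biotinylated substrate peptide at 250 nM final, Mg 5 mM final and ATP 25 μM final. Potency derived from inhibition of substrate phosphorylation.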
row,IC50 [nM],SMILES
1,13,Cc1cc(Nc2cc(C(F)(F)F)ccn2)nc(-c2ccc(NC3CCN(C(=O)Cc4cccc(Cl)c4)CC3)nc2)c1 [Example 4-107]
2,3,Cc1cc(Nc2cc(C(F)(F)F)ccn2)nc(-c2ccc(NC3CCN(C(=O)Cc4ccc(O)cc4)CC3)nc2)c1 [Example 4-108]
3,6,COc1cccc(C(=O)N2CCC(Nc3ccc(-c4cc(C)cc(Nc5cc(C(F)(F)F)ccn5)n4)cn3)CC2)c1 [Example 4-109]
4,6,COc1cccc(CC(=O)N2CCC(Nc3ccc(-c4cc(C)cc(Nc5cc(C(F)(F)F)ccn5)n4)cn3)CC2)c1 [Example 4-110]
5,3,Cc1cc(Nc2cc(C(F)(F)F)ccn2)nc(-c2ccc(NC3CCN(C(=O)c4ccc5ncccc5c4)CC3)nc2)c1 [Example 4-111]
6,6,Cc1cc(Nc2cc(C(F)(F)F)ccn2)nc(-c2ccc(NC3CCN(C(=O)c4ccccc4C#N)CC3)nc2)c1 [Example 4-112]
7,26,Cc1cc(Nc2cc(C(F)(F)F)ccn2)nc(-c2ccc(NC3CCN(C(=O)c4cc5ccccc5n4C)CC3)nc2)c1 [Example 4-113]
8,23,Cc1cc(Nc2cc(C(F)(F)F)ccn2)nc(-c2ccc(NC3CCN(C(=O)c4ccc(Oc5ccccc5)cc4)CC3)nc2)c1 [Example 4-114]
9,4,Cc1cc(Nc2cc(C(F)(F)F)ccn2)nc(-c2ccc(NC3CCN(C(=O)c4ccc(F)c(O)c4)CC3)nc2)c1 [Example 4-115]
10,4,Cc1cc(Nc2cc(C(F)(F)F)ccn2)nc(-c2ccc(NC3CCN(C(=O)Cc4ccc(O)c(F)c4)CC3)nc2)c1 [Example 4-116]
11,141,Cc1cc(Nc2cc(C(F)(F)F)ccn2)nc(-c2ccc(NC3CCN(C(=O)c4cccc5c4-c4ccccc4C5)CC3)nc2)c1 [Example 4-117]
12,176,Cc1cc(Nc2cc(C(F)(F)F)ccn2)nc(-c2ccc(NC3CCN(C(=O)c4cc5ccccc5n4-c4ccccc4)CC3)nc2)c1 [Example 4-118]
13,19,Cc1cc(Nc2cc(C(F)(F)F)ccn2)nc(-c2ccc(NC3CCN(C(=O)c4cccc5c6c([nH]c45)CCCC6)CC3)nc2)c1 [Example 4-119]
14,9,Cc1cc(Nc2cc(C(F)(F)F)ccn2)nc(-c2ccc(NC3CCN(C(=O)c4cccc5[nH]ncc45)CC3)nc2)c1 [Example 4-120]
15,5,Cc1cc(Nc2cc(C(F)(F)F)ccn2)nc(-c2ccc(NC3CCN(C(=O)CCc4nc5ccccc5s4)CC3)nc2)c1 [Example 4-121]
16,3,Cc1cc(Nc2cc(C(F)(F)F)ccn2)nc(-c2ccc(NC3CCN(C(=O)c4cccc(-c5ccccc5)c4)CC3)nc2)c1 [Example 4-122]
17,1,"Cc1cc(Nc2cc(C(F)(F)F)ccn2)nc(-c2ccc(N3CC[C@H](N)C3)nc2)c1 [Example 5, 6′-[(3S)-3-aminopyrrolidin-1-yl]-4-methyl-N-[4-(trifluoromethyl)pyridin-2-yl]-2,3′-bipyridin-6-amine]"
18,2,Cc1cc(Nc2cc(C(F)(F)F)ccn2)nc(-c2ccc(N3CCCC(N)C3)nc2)c1 (centres unmarked) [Example 5-1]
19,6,Cc1cc(Nc2cc(C(F)(F)F)ccn2)nc(-c2ccc(NC3CCNCC3)nc2)c1 [Example 5-2]
20,9,Cc1cc(Nc2cc(C(F)(F)F)ccn2)nc(-c2ccc(C3(O)CCNCC3)nc2)c1 [Example 5-3]
21,17,"CC(=O)N[C@H]1CCN(c2ccc(-c3cc(C)cc(Nc4cc(C(F)(F)F)ccn4)n3)cn2)C1 [Example 6, N-[(3S)-1-(4-methyl-6-{[4-(trifluoromethyl)pyridin-2-yl]amino}-2,3′-bipyridin-6′-yl)pyrrolidin-3-yl]acetamide]"
22,17,Cc1cc(Nc2cc(C(F)(F)F)ccn2)nc(-c2ccc(N3CC[C@H](NC(=O)c4ccc5cc[nH]c5c4)C3)nc2)c1 [Example 6-1]

# Second part, the molecule before the results:
row,SMILES,IC50 [nM]
1,Cc1cc(Nc2cc(C(F)(F)F)ccn2)nc(-c2ccc(NC3CCN(C(=O)c4cccc5c4oc4ccccc45)CC3)nc2)c1 [Example 4-67],178
2,Cc1cc(Nc2cc(C(F)(F)F)ccn2)nc(-c2ccc(NC3CCN(C(=O)Cc4ccccn4)CC3)nc2)c1 [Example 4-68],2
3,Cc1cc(Nc2cc(C(F)(F)F)ccn2)nc(-c2ccc(NC3CCN(C(=O)Cc4ccc(-c5ccccc5)cc4)CC3)nc2)c1 [Example 4-69],138
4,Cc1cc(Nc2cc(C(F)(F)F)ccn2)nc(-c2ccc(NC3CCN(C(=O)Cc4ccccc4C#N)CC3)nc2)c1 [Example 4-70],6
5,Cc1cc(Nc2cc(C(F)(F)F)ccn2)nc(-c2ccc(NC3CCN(C(=O)c4ccccc4Cl)CC3)nc2)c1 [Example 4-71],21
6,Cc1cc(Nc2cc(C(F)(F)F)ccn2)nc(-c2ccc(NC3CCN(C(=O)c4ccc(C(F)(F)F)cc4)CC3)nc2)c1 [Example 4-72],56
7,Cc1cc(Nc2cc(C(F)(F)F)ccn2)nc(-c2ccc(NC3CCN(C(=O)Cc4ccc(Cl)cc4)CC3)nc2)c1 [Example 4-73],21
8,Cc1cc(Nc2cc(C(F)(F)F)ccn2)nc(-c2ccc(NC3CCN(C(=O)Cc4cccc(Oc5ccccc5)c4)CC3)nc2)c1 [Example 4-74],57
9,Cc1cc(Nc2cc(C(F)(F)F)ccn2)nc(-c2ccc(NC3CCN(C(=O)Cc4ccccc4C(F)(F)F)CC3)nc2)c1 [Example 4-75],39
10,Cc1cc(Nc2cc(C(F)(F)F)ccn2)nc(-c2ccc(NC3CCN(C(=O)CCOc4ccccc4)CC3)nc2)c1 [Example 4-76],10
11,Cc1cc(Nc2cc(C(F)(F)F)ccn2)nc(-c2ccc(NC3CCN(C(=O)Cc4cccnc4)CC3)nc2)c1 [Example 4-77],1
12,Cc1cc(Nc2cc(C(F)(F)F)ccn2)nc(-c2ccc(NC3CCN(C(=O)c4ccc5nc(C)sc5c4)CC3)nc2)c1 [Example 4-78],4
13,CC(=O)Nc1ccc(C(=O)N2CCC(Nc3ccc(-c4cc(C)cc(Nc5cc(C(F)(F)F)ccn5)n4)cn3)CC2)cc1 [Example 4-79],4
14,Cc1cc(Nc2cc(C(F)(F)F)ccn2)nc(-c2ccc(NC3CCN(C(=O)COc4ccccc4)CC3)nc2)c1 [Example 4-80],28
15,Cc1cc(Nc2cc(C(F)(F)F)ccn2)nc(-c2ccc(NC3CCN(C(=O)c4ccc(-c5ccccc5)cc4)CC3)nc2)c1 [Example 4-81],44
16,Cc1cc(Nc2cc(C(F)(F)F)ccn2)nc(-c2ccc(NC3CCN(C(=O)Cc4cccc(C#N)c4)CC3)nc2)c1 [Example 4-82],3
17,Cc1cc(Nc2cc(C(F)(F)F)ccn2)nc(-c2ccc(NC3CCN(C(=O)Cc4cccc(O)c4)CC3)nc2)c1 [Example 4-83],3
18,Cc1cc(Nc2cc(C(F)(F)F)ccn2)nc(-c2ccc(NC3CCN(C(=O)c4ccncc4)CC3)nc2)c1 [Example 4-84],4
19,Cc1cc(Nc2cc(C(F)(F)F)ccn2)nc(-c2ccc(NC3CCN(C(=O)c4cccc(C#N)c4)CC3)nc2)c1 [Example 4-85],7
20,Cc1cc(Nc2cc(C(F)(F)F)ccn2)nc(-c2ccc(NC3CCN(C(=O)c4n[nH]c5ccccc45)CC3)nc2)c1 [Example 4-86],7

row,SMILES,IC50 [nM]
1,COc1ccccc1C(=O)N1CCC(Nc2ccc(-c3cc(C)cc(Nc4cc(C(F)(F)F)ccn4)n3)cn2)CC1 [Example 4-87],6
2,Cc1cc(Nc2cc(C(F)(F)F)ccn2)nc(-c2ccc(NC3CCN(C(=O)Cc4c(C)[nH]c5ccccc45)CC3)nc2)c1 [Example 4-88],11
3,Cc1cc(Nc2cc(C(F)(F)F)ccn2)nc(-c2ccc(NC3CCN(C(=O)CCCN4CCCC4=O)CC3)nc2)c1 [Example 4-89],1
4,Cc1cc(Nc2cc(C(F)(F)F)ccn2)nc(-c2ccc(NC3CCN(C(=O)c4ccc(C#N)cc4)CC3)nc2)c1 [Example 4-90],4
5,Cc1cc(Nc2cc(C(F)(F)F)ccn2)nc(-c2ccc(NC3CCN(C(=O)Cc4ccc(C#N)cc4)CC3)nc2)c1 [Example 4-91],4
6,Cc1cc(Nc2cc(C(F)(F)F)ccn2)nc(-c2ccc(NC3CCN(C(=O)c4cnc5ccccc5c4)CC3)nc2)c1 [Example 4-92],4
7,COc1ccc(C(=O)N2CCC(Nc3ccc(-c4cc(C)cc(Nc5cc(C(F)(F)F)ccn5)n4)cn3)CC2)cc1 [Example 4-93],5
8,Cc1cc(Nc2cc(C(F)(F)F)ccn2)nc(-c2ccc(NC3CCN(C(=O)c4cccnc4)CC3)nc2)c1 [Example 4-94],2
9,Cc1cc(Nc2cc(C(F)(F)F)ccn2)nc(-c2ccc(NC3CCN(C(=O)Cc4ccccc4Cl)CC3)nc2)c1 [Example 4-95],12
10,Cc1cc(Nc2cc(C(F)(F)F)ccn2)nc(-c2ccc(NC3CCN(C(=O)Cc4cccc(C(F)(F)F)c4)CC3)nc2)c1 [Example 4-96],103
11,Cc1cc(Nc2cc(C(F)(F)F)ccn2)nc(-c2ccc(NC3CCN(C(=O)c4ccc5nc(C)c(C)nc5c4)CC3)nc2)c1 [Example 4-97],2
12,Cc1cc(Nc2cc(C(F)(F)F)ccn2)nc(-c2ccc(NC3CCN(C(=O)c4ccc5[nH]ncc5c4)CC3)nc2)c1 [Example 4-98],5
13,Cc1cc(Nc2cc(C(F)(F)F)ccn2)nc(-c2ccc(NC3CCN(C(=O)c4cn(C)c5ccccc45)CC3)nc2)c1 [Example 4-99],11
14,Cc1cc(Nc2cc(C(F)(F)F)ccn2)nc(-c2ccc(NC3CCN(C(=O)Cc4ccc(O)c(Cl)c4)CC3)nc2)c1 [Example 4-100],9
15,Cc1cc(Nc2cc(C(F)(F)F)ccn2)nc(-c2ccc(NC3CCN(C(=O)c4cccc(O)c4)CC3)nc2)c1 [Example 4-101],8
16,Cc1cc(Nc2cc(C(F)(F)F)ccn2)nc(-c2ccc(NC3CCN(C(=O)Cc4cn(C)c5ccccc45)CC3)nc2)c1 [Example 4-102],7
17,Cc1cc(Nc2cc(C(F)(F)F)ccn2)nc(-c2ccc(NC3CCN(C(=O)c4ccc5[nH]c(C)c(C)c5c4)CC3)nc2)c1 [Example 4-103],11
18,Cc1cc(Nc2cc(C(F)(F)F)ccn2)nc(-c2ccc(NC3CCN(C(=O)c4ccccn4)CC3)nc2)c1 [Example 4-104],2
19,Cc1cc(Nc2cc(C(F)(F)F)ccn2)nc(-c2ccc(NC3CCN(C(=O)c4cccc(Cl)c4)CC3)nc2)c1 [Example 4-105],245
20,Cc1cc(Nc2cc(C(F)(F)F)ccn2)nc(-c2ccc(NC3CCN(C(=O)c4ccc(O)cc4)CC3)nc2)c1 [Example 4-106],6
